Results from US7098237B1, “Remedies for ischemia reperfusion injury” (Shionogi & Co., Ltd., priority 1998, dated 2006).

Key:
[1] = system: Total Hepatic Vascular Exclusion Model (liver ischemia reperfusion); assay: Hepatic function related factors (AST, ALT, LDH) by administration before ischemia, Total Hepatic Vascular Exclusion Model; type: in vivo, Beagle dogs; settings: 0.2 mg/kg/hr continuous i.v. for one hour before ischemia; 2 h ischemia then reperfusion; peripheral artery blood
Text: (§1) Beagle dogs (female, 10 to 12 kg) are used for experimental animals. Under the control of general anesthesia by inserting a tube into the trachea, a bypass is formed between the portal vein, femoral vein and external jugular vein. […] An auxiliary circulation is applied during this two hour's operation. Ischemia is continued for two hours, and reperfusion of the blood is resumed by releasing the clump. Various physiological changes are confirmed under laparotomy until three hours after reperfusion and thereafter abdomen is sutured (the method for maintaining anesthesia during this period follows the existing protocol, and fluctuation of the blood pressure and the like are not corrected by different anesthetic methods). Survival at two weeks after the surgery is confirmed.
The test compound is administered before and after warm ischemia. The compound is administered by intravenous injection.
Various factors related to the hepatic function and blood flow of hepatic tissues were measured by sampling over time from the peripheral artery and hepatic vein.
as §1, with “bypass was” for “bypass is”, “methods). The blood is collected from the peripheral artery to measure AST, ALT and LDH as indexes of the hepatic functions.” for “methods).”
The experimental group is divided into two groups with and without administration of the compound (1). […]

[2] = system: Total Hepatic Vascular Exclusion Model (liver ischemia reperfusion); assay: Blood flow in the hepatic tissue by administration before ischemia (laser Doppler method); type: in vivo, Beagle dogs; settings: 0.2 mg/kg/hr continuous i.v. for one hour before ischemia
Text: as §1, with “bypass was” for “bypass is”, “methods). The blood is collected from the peripheral artery to measure AST, ALT and LDH as indexes of the hepatic functions.” for “methods).”
A dosage of 0.2 mg/kg/hr of the compound (1) was administered by continuous intravenous injection through the peripheral vein during the period of one hour from before ischemia to the occurrence of ischemia.
(§2) The blood flow in the hepatic tissue was measured using a laser Doppler method.

[3] = system: Total Hepatic Vascular Exclusion Model (liver ischemia reperfusion); assay: Hepatic function related factors (AST, ALT, LDH) by administration after ischemia; type: in vivo, Beagle dogs; settings: 0.2 mg/kg/hr continuous i.v. for one hour from 20 minutes before reperfusion to 40 minutes after reperfusion
Text: as §1, with “bypass was” for “bypass is”, “methods). The blood is collected from the peripheral artery to measure AST, ALT and LDH as indexes of the hepatic functions.” for “methods).”
(§3) The experiments were carried out by the same method as in Example 1. A dosage of 0.2 mg/kg/hr of the compound (1) was administered by continuous intravenous injection through the peripheral vein for one hour from 20 minutes before blood reperfusion to 40 minutes after the reperfusion.

[4] = system: Total Hepatic Vascular Exclusion Model (liver ischemia reperfusion); assay: Blood flow in the hepatic tissue by administration after ischemia (laser Doppler method); type: in vivo, Beagle dogs; settings: 0.2 mg/kg/hr continuous i.v. for one hour from 20 minutes before reperfusion to 40 minutes after reperfusion
Experimental: as §2, §3
The blood flow in the hepatic tissue was measured by the same method as in Examples 2 and 3.

[5] = system: lung injury after small intestine ischemia reperfusion; settings: Am. J. Physiol., 268: G397, 1995; cited from earlier work

SMILES	ALT value compared with the control group (FIG. 2) [1]	AST value compared with the control group (FIG. 1) [1]	LDH value compared with the control group (FIG. 3) [1]	blood flow in the liver after reperfusion compared with the control group (FIG. 4) [2]	ALT value compared with the control group (FIG. 6) [3]	AST value compared with the control group (FIG. 5) [3]	LDH value compared with the control group (FIG. 7) [3]	blood flow after reperfusion compared with the control group (FIG. 8) [4]	occurrence of lung injury accompanied by reperfusion of the small intestine [5]
CCc1c(C(=O)C(N)=O)c2c(OCC(=O)[O-])cc(C)cc2n1Cc1ccccc1.[Na+] [compound (1)]	significantly suppressed	significantly suppressed	significantly suppressed	significantly increased	significantly suppressed	significantly suppressed	significantly suppressed	significantly increased	
CCN(CC)CCCC(C)Nc1c2ccc(Cl)cc2nc2ccc(OC)cc12 (stereo not drawn) [quinacrine]									can be prevented
